Where two headings read alike, the source gives them in different places.

Here are results for 2 compounds from paper PMC4445981, “The glutamate transport inhibitor DL-Threo-β-Benzyloxyaspartic acid (DL-TBOA) differentially affects SN38- and oxaliplatin-induced death of drug-resistant colorectal cancer cells” (BMC Cancer, 2015).

Experiment [1] concerns [3H]-D-Asp uptake (glutamate transporter activity) in LoVo-PAR cells. Put plainly: [3H]-D-Asp uptake assay, LoVo-PAR. The experiment is classed as cell-based, human. The procedure: (§1) We therefore next determined glutamate transporter activity (as uptake of the substrate [^3H]-D-Asp following a 6-min incubation in buffer supplemented with a tracer concentration of 100 nM [^3H]-D-Asp). […] To determine which transporter(s) was responsible for the [^3H]-D-Asp uptake, we assessed the effect of DL-TBOA, a nonselective inhibitor of EAATs, and UCPH-101, a specific SLC1A3 inhibitor [16, 28, 29]. […] Basal [^3H]-D-Asp uptake was decreased by about 60 % in SN38-resistant compared to parental HCT116 cells, whereas that in SN38-resistant LoVo cells was nearly tripled compared to parental LoVo cells.
(§2) The [^3H]-D-Asp uptake assay was performed essentially as in [30]. Briefly, cells were split into poly-D-lysine-coated white 96-well plates (PerkinElmer). A similar number of cells were seeded for HCT116 parental, HCT116-SN38 and HCT116-Oxa cell lines (7 × 10^4 cells/well) and LoVo parental, Lovo-SN38 and Lovo-Oxa cell lines (6 × 10^4 cells/well). 16–24 h later, culture medium was aspirated, and cells were washed once with 100 μl assay buffer (Hank’s Buffered Saline Solution supplemented with 20 mM HEPES, 1 mM CaCl2 and 1 mM MgCl2, pH 7.4). 50 μl assay buffer supplemented with 100 nM [^3H]-D-Asp and test compounds as indicated was added, and the plate was incubated at 37 °C for 6 min. Non-specific [^3H]-D-Asp uptake was determined in wells with 3 mM L-glutamate. The assay mixture was quickly removed, and wells were washed with 2 × 100 μl ice-cold assay buffer, followed by 150 μl Microscint™20 scintillation fluid (PerkinElmer). The plate was shaken for 1 h and counted in a Wallac 1450 MicroBeta Trilux scintillation counter (GMI, Ramsey, MN).

In experiment [2] the test system is [3H]-D-Asp uptake (glutamate transporter activity) in LoVo-Oxa cells. As to the kind of experiment: [3H]-D-Asp uptake assay, LoVo-Oxa. Type of experiment: cell-based, human. The procedure: as §1, §2
Experiment [3] relates to [3H]-D-Asp uptake in HCT116 and LoVo cells (parental and resistant). As to the kind of experiment: [3H]-D-Asp uptake assay, summary over cell lines. Type of experiment: cell-based, human. How it is done: as §1, §2
Experiment [4] relates to [3H]-D-Asp uptake (glutamate transporter activity) in HCT116-PAR cells. Put plainly: [3H]-D-Asp uptake assay, HCT116-PAR. Type of experiment: cell-based, human. The procedure:
as §1, §2

Experiment [5] concerns [3H]-D-Asp uptake (glutamate transporter activity) in HCT116-SN38 cells. Put plainly: [3H]-D-Asp uptake assay, HCT116-SN38. The experiment is classed as cell-based, human. The procedure:
as §1, §2

The subject of experiment [6] is [3H]-D-Asp uptake (glutamate transporter activity) in HCT116-Oxa cells. Put plainly: [3H]-D-Asp uptake assay, HCT116-Oxa. Type of experiment: cell-based, human. How it is done:
as §1, §2

Experiment [7] has as its system [3H]-D-Asp uptake (glutamate transporter activity) in LoVo-SN38 cells. As to the kind of experiment: [3H]-D-Asp uptake assay, LoVo-SN38. The experiment is classed as cell-based, human. How it is done:
as §1, §2

The next experiment has as its system SLC1A1. Particulars: at concentration up to > 400 fold higher than SLC1A3 IC50; cited from earlier work.
The subject of another experiment is SLC1A3. The conditions noted are these: cited from earlier work.
Where [8] appears, read: Homo sapiens, read-out: IC50, [3H]-D-Asp uptake.
Where [9] appears, read: Homo sapiens, read-out: pIC50 ± S.E.M., [3H]-D-Asp uptake (converted).

In the case of `N[C@@H](CCC(=O)O)C(=O)O` [L-Glu, L-glutamate], the IC50 in [1] (setting [8]) is 26 µM; in [1] (setting [9]) it was 25.7 µM; in experiment [2] (setting [8]), 23 µM; in experiment [2] (setting [9]) it was 22.9 µM; in [3] (Homo sapiens, read-out: IC50 values, competitive inhibition of [3H]-D-Asp uptake), 20 to 30 µM; in experiment [4] (setting [8]) it was 21 µM. In addition, the IC50 in experiment [4] (setting [9]) was 21.4 µM; in experiment [5] (setting [8]) it was 21 µM; in experiment [5] (setting [9]) it was 21.4 µM; in experiment [6] (setting [8]), 21 µM; in [6] (setting [9]) it was 21.4 µM; in [7] (setting [8]), 28 µM. Further, the IC50 in experiment [7] (setting [9]) was 28.8 µM.
For the compound `COc1ccc(C2C(C#N)=C(N)OC3=C2C(=O)CC(c2cccc4ccccc24)C3)cc1` (stereo not shown) [UCPH], the “pIC50 ± S.E.M., [3H]-D-Asp uptake” value in experiment [1] (LoVo-PAR, 100 nM [3H]-D-Asp, 6 min, 37 °C) is recorded as under 4.0; in [2] (LoVo-Oxa, 100 nM [3H]-D-Asp, 6 min, 37 °C), under 4.0; in experiment [4] (HCT116-PAR, 100 nM [3H]-D-Asp, 6 min, 37 °C) it was under 4.0; in [5] (HCT116-SN38, 100 nM [3H]-D-Asp, 6 min, 37 °C) it was under 4.0; in experiment [6] (HCT116-Oxa, 100 nM [3H]-D-Asp, 6 min, 37 °C), under 4.0; in experiment [7] (LoVo-SN38, 100 nM [3H]-D-Asp, 6 min, 37 °C) it was under 4.0. In addition, the IC50 was over 100 µM in experiment [1] (LoVo-PAR, 100 nM [3H]-D-Asp, 6 min, 37 °C, read-out: IC50, [3H]-D-Asp uptake); over 100 µM in [2] (LoVo-Oxa, 100 nM [3H]-D-Asp, 6 min, 37 °C, read-out: IC50, [3H]-D-Asp uptake); over 100 µM in [4] (HCT116-PAR, 100 nM [3H]-D-Asp, 6 min, 37 °C, read-out: IC50, [3H]-D-Asp uptake); over 100 µM in experiment [5] (HCT116-SN38, 100 nM [3H]-D-Asp, 6 min, 37 °C, read-out: IC50, [3H]-D-Asp uptake); over 100 µM in experiment [6] (HCT116-Oxa, 100 nM [3H]-D-Asp, 6 min, 37 °C, read-out: IC50, [3H]-D-Asp uptake); over 100 µM in [7] (LoVo-SN38, 100 nM [3H]-D-Asp, 6 min, 37 °C, read-out: IC50, [3H]-D-Asp uptake). Also, the “activity at SLC1A1” value with SLC1A1 was “inactive”. Further, in experiment [3] (all cell lines, concentrations up to 100 μM), the “effect on basal [3H]-D-Asp uptake” value is listed as “essentially unaffected”. Further, the “IC50 values for SLC1A3” value in the experiment on SLC1A3 was “high-nanomolar”.
